# Reference: PMC9738927, “A Newly Identified Monoterpenoid-Based Small Molecule Able to Support the Survival of Primary Cultured Dopamine Neurons and Alleviate MPTP-Induced Toxicity In Vivo” (Molecules, 2022)
# Key:
# [1] = tested on: nigrostriatal dopamine system of MPTP-treated mice; assay: TH immunohistochemistry of striatum and substantia nigra in MPTP-treated mice; type: in vivo, C57Bl/6 male mice
# Experimental: The samples were collected 7 days after the last administration of PA96. Mice were anesthetized using terminal phenobarbital injection (50 mg/kg), perfused trans-cardially with PBS, and then 4% paraformaldehyde in PBS in accordance with. The brains were collected, treated, and embedded into paraffin blocks using the histological complex Microm (Fürth, Germany).
# To analyze the effect of PA96 in dopamine neurons in vivo, tyrosine hydroxylase immunohistochemistry was performed as described previously. The PFA-fixed and paraffin-embedded brains were cut into 5 µm thick sections (3 sections per slide), and every fifth slide was taken for TH staining. The sections were deparaffinized, followed by a citrate antigen retrieval procedure. Endogenous peroxidase was inactivated by 30 min incubation with 3% H2O2. The sections were blocked with 5% normal goat serum and then probed with monoclonal TH antibody (1:2000, Millipore Cat# MAB318 Lot# RRID:AB_2201528) overnight at +4 °C. The sections were washed, and biotinylated horse antimouse secondary antibody (1:200, Cat# BA-2001, Vector Laboratories, Burlingame, CA, USA) was applied for 1 h, followed by washing. […]
# The sections were scanned with an automated scanner (3DHistech, Budapest, Hungary), and the images were converted to 16-bit grayscale. […] The integrated optical densities in images were measured in ImageJ (NIH) and divided by area in pixels.
# [2] = tested on: haloperidol-induced catalepsy; assay: Haloperidol-induced catalepsy, parallel bars test; type: in vivo, male Wistar rats; settings: 1, 10, 20 mg/kg per os, haloperidol 1.5 mg/kg i.p.
# Experimental: Neuroleptic-induced catalepsy has long been used as an animal model for screening drugs for parkinsonism, as described before. Adult male Wistar rats were divided into four groups, each containing six animals. Group 1 received haloperidol 1.5 mg/kg in normal saline and served as the cataleptic control without any drug treatment. The studied compound PA96 was dissolved in saline containing 0.5% Tween 80 just before use. Groups 2, 3, and 4 received PA-96 in a dose of 1, 10, or 20 mg/kg per os accordingly; 10 min after the PA96 administration, catalepsy was induced by the intraperitoneal administration of haloperidol in a dose of 1.5 mg/kg body weight in normal saline. All the behavioral studies were performed at room temperature in a calm room without external interference. The severity of catalepsy was measured 30, 60, 120, 180, and 240 min after haloperidol administration using the method of parallel bars. The fore and hind limbs of a rat were placed on parallel bars (walls) to ensure that the animal’s back was straight, and the time spent by the animal in an immobilized state was recorded. The general duration of catalepsy and the percentage of cataleptic animals in the group were evaluated.
# [3] = tested on: naïve C57Bl/6 mice; assay: Open field test in naïve mice; type: in vivo, C57Bl/6 male mice; settings: 1, 10, 20 mg/kg once per os, 1 h after dosing
# Experimental: The studied agent in a dose of 1 mg/kg, 10 mg/kg, and 20 mg/kg or saline was administered once per os in a water-Tween 80 solution to 8 mice per group of C57Bl/6 mice. The main markers of the locomotor activity movement distance (cm) and duration of locomotor activity (s) were registered with the open field test performed for 2 min using Tru Scan (USA), 1 h after the administration of the studied agent.
# [4] = tested on: CD-1 female mice; assay: Maximum tolerated dose and LD50 (acute oral toxicity); type: in vivo
# Experimental: (§1) Healthy animals were randomly divided into groups of four males or four females each. After a 3–4 h starvation, animals were administered 100, 150, 200, or 500 mg/kg PA96 solution (prepared by dissolution in saline containing 0.5% Tween 80) or the vehicle […]. Food was provided for approximately 1–2 h after administration. All mice were continuously monitored for changes in weight, breathing, ptosis, gait disturbance, tremor, and mortality 1 h after administration of PA96 and every 6 h after that. The day of dosing was designated as day 0, and animals were observed until day 14. Each mouse was weighed on days 0, 1, 3, 7, and 14.
# (§2) The arithmetic method of Kerber was used to determine the lethal dose fifty (LD50) that killed 50% of studied animals with PA96.
# (§3) The LD50 value was determined according to the following equation [24]:LD50 = LD100 − ∑ (z × d)/m(1) where LD50—dose capable of killing 50% of animals; LD100—dose capable of killing 100% of animals; z—half the sum of the number of animals in the experiments with the test of two following doses; d—the difference between two successive doses of administrative PA96; m—total number of animals in each group.
# [5] = as above; type: in vivo; settings: female, CD-1, mouse, in vivo, po
# Experimental: as §1, §2, §3
compound,measurement,setting,value
"C=C(C)[C@@H]1CC=C(C)[C@@H](Sc2nc[nH]n2)[C@@H]1O [PA96, (1R,2R,6S)-2-(1H-1,2,4-triazol-3-ylthio)-3-methyl-6-(prop-1-en-2-yl)cyclohex-3-enol]",increase of the number of TH-positive neurons in SN,"[1]; 1 mg/kg, compared to MPTP-treated mice",37%
same,density of TH-positive fibers in the striatum (loss induced by MPTP),[1]; 1 and 10 mg/kg,not alleviated
same,catalepsy time,[2],significantly decreased
same,percentage of cataleptic animals,[2],significantly decreased
same,"locomotor activity of naive animals (movement distance, duration)",[3],did not activate
same,MTD relative to the effective dose,"[4]; female, CD-1, mouse, in vivo, 14 days",100 fold
same,"dose at which abnormal clinical signs were observed (piloerection, decreased motor activity, ptosis, gait disturbance)","[4]; female, CD-1, mouse, in vivo, po, 14 days",≥ 150 mg/kg
same,hazard category,"[4]; mouse, in vivo",Category III (slightly hazardous)
same,therapeutic dose lower than LD50,[4]; therapeutic dose vs LD50,at least 100 times
same,LD50 at 14 days,[5],234 mg/kg
same,MTD at 14 days,[5],100 mg/kg
